Laboratory results as given in patent publication US12304970B2, “Nuclear localization signals, compositions formed therefrom, and methods of use thereof for delivery of cargo to the nucleus” (Yale University, priority 2018, dated 2025).
Entries after “also recorded” stand apart in the source; their conditions may differ. Where two headings read alike, the source gives them in different places.

Legend:
[1] = tested on: cell nuclei; conditions: known anti-DNA autoantibodies; cited from earlier work
[2] = tested on: DLD1 colon cancer cells; assay: Protein L immunostain of variant 13 nuclear penetration with nuclear import inhibitors, DLD1 cells; type: cell-based; conditions: 10 μM variant 13 co-incubated with 0, 10, 25, or 50 μM inhibitor
Procedure: (§1) For all experiments, cells were cultivated overnight to allow for attachment, followed by pretreatment with either control medium (absence of inhibitor), or medium containing inhibitor for durations previously-reported in the literature (see Table 1, below).
(§2) For endocytosis inhibition experiments, cells were cultivated in serum-free medium containing 1% v/v BSA to deplete endogenous serum levels. Following preincubation with inhibitors, cells were treated with either control medium or 10 μM variant 13, and the same dose of small molecule inhibitor for a further 30 minutes. For all experiments, cells were washed thrice, followed by immediate fixation with pre-chilled ice-cold ethanol. Subsequently, treated cells were probed using a protein L immunodetection approach to probe variant 13 nuclear uptake (Rattray et al., Biochem Biophys Res Commun 496, 858-864 (2018)). All monolayers were immediately imaged following color development on an Evos Fl microscope.
(§3) DLD-1 and A549 cells were treated with 10 μM variant 13 co-incubated with 0, 10, 25, or 50 μM concentrations of ivermectin. Relative intensity of protein L nuclear staining as compared to amount of stain in cells treated without ivermectin was also quantified by ImageJ.
(§4) DLD-1 cells and A549 cells were treated with 10 μM variant 13 co-incubated with 0, 10, 25, or 50 μM concentrations of importazole and then immunostained for protein L.
(§5) DLD-1 cells and A549 cells were treated with 10 μM variant 13 co-incubated with 0, 10, 25, or 50 μM concentrations of mifepristone and then immunostained for protein L.

[3] = tested on: A549 lung cancer cells; assay: Protein L immunostain of variant 13 nuclear penetration with nuclear import inhibitors, A549 cells; type: cell-based; conditions: 10 μM variant 13 co-incubated with 0, 10, 25, or 50 μM inhibitor
Procedure: as §1, §2, §3, §4, §5

[4] = tested on: DLD1 cancer cells; assay: Uptake of rhodamine-labeled variant 13 into live DLD1 cells; type: cell-based; conditions: 50 μM importazole
Procedure: Live DLD1 cancer cells were treated with control or rhodamine-labeled variant 13 (Rh-variant 13)+/−50 μM importazole and were then visualized under light and fluorescence microscopy.

[5] = tested on: DLD1 cells; assay: SLE sera nuclear import with nuclear import inhibitors; type: cell-based; conditions: pre- and co-treatment with inhibitor
Procedure: DLD1 cells were pre-treated with either control media, or media containing nuclear import inhibitors for four hours. Subsequent co-treatment with inhibitor and patient SLE serum (diluted 1:50) was performed for one hour at 37° C. Following treatment, cells were fixed, blocked and probed with an alkaline-phosphatase anti-human IgG primary antibody overnight (Fisher Scientific). Cell monolayers were washed, and color developed using NBT/BCIP reagent (Fisher Scientific) for the same duration across all experiments. Following chromogen color development, all monolayers were washed, and brightfield images acquired immediately on an Evos Fl microscope.

[6] = tested on: MCF7 breast cancer cells; assay: Uptake of rhodamine-labeled variant 13 into live MCF7 cells; type: cell-based; conditions: 50 μM ivermectin
Procedure: Live MCF7 breast cancer cells were treated with control or rhodamine-labeled variant 13 (Rh-variant 13)+/−50 μM ivermectin and were then visualized under light and fluorescence microscopy. Ivermectin inhibited cellular/nuclear uptake of Rh-variant 13.

[7] = tested on: DLD1 cells; assay: Nuclear penetration of scleroderma autoantibody SSC and effect of ivermectin; type: cell-based
Text: In addition to SLE, cell-penetrating autoantibodies are detected in other autoimmune diseases such as scleroderma. […] SSC was expressed in and purified from HEK293T cells. […] Ivermectin inhibited the nuclear uptake of SSC, confirming that ivermectin can modulate the nuclear-penetrating activity of autoantibodies from multiple autoimmune diseases.

[8] = tested on: cell nuclei; assay: Nuclear penetration of humanized 3E10 variants compared with 3E10 (D31N) di-scFv; type: cell-based; conditions: for Nuclear localizing?: humanized 3E10 variants
Text: A range of humanized 3E10 variants were generated with subtle differences in framework and CDR sequences.

[9] = biological target: T1, Importin-β1 (KPNB1) (Homo sapiens, UniProt Q14974); assay: Variant 13 nuclear penetration after siRNA knockdown of importin β1 in DLD1 cells; type: cell-based; conditions: 10 μM variant 13 for 30 minutes, n=100 cells per treatment
T1 construct: endogenous in cells; host or cells: DLD1 cells
Procedure: Importin-β1 (KPNB1) knockdown in DLD1 cells were generated using control (D-001206-14-05) and KPNB1 (importin β1, M-017523-01-0005) siRNA (Dharmacon). DLD1 cells were seeded into 24-well (western blot) or 96-well plates (cell penetration assays) overnight. Cell monolayers were transfected with siRNA, followed by media replacement at 24 hours, and evaluation at multiple time points post-transfection. Importin (31 expression was then evaluated by western blotting of cell lysates.
Knockdown of importin β1 in DLD1 cells by siRNA was next performed to further probe the role of this pathway in modulating variant 13 nuclear localization.

T1 sequence (Q14974 whole entry): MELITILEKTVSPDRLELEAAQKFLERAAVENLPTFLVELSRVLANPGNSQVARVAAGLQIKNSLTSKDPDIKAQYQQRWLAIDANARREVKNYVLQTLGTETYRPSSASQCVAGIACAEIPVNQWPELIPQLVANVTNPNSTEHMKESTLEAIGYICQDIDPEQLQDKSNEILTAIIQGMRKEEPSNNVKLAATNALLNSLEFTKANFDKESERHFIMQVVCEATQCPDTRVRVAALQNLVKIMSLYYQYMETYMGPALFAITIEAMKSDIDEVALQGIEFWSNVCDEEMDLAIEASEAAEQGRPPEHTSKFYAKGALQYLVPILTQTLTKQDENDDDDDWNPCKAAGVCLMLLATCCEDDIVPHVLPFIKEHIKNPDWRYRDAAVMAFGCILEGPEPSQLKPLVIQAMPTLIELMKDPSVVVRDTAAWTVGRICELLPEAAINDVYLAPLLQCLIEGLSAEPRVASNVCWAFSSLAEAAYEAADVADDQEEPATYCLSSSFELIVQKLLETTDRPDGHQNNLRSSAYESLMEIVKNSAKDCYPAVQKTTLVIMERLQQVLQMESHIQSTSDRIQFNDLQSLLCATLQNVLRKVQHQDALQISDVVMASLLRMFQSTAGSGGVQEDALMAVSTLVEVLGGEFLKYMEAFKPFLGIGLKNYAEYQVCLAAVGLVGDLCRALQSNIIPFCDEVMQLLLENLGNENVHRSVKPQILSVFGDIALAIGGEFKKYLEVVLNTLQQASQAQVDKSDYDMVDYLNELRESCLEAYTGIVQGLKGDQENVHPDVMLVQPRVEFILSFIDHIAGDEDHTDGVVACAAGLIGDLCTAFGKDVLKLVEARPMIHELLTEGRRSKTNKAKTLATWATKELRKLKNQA

| Molecule | nuclear penetration by variant 13 [2] | nuclear penetration by variant 13 [3] | nuclear uptake of ANAs in SLE-19 [5] | nuclear penetration compared to murine 3E10 (D31N) di-scFv prototype [8] | Nuclear localizing? [8] | further results |
| --- | --- | --- | --- | --- | --- | --- |
| 3E10: murine lupus anti-DNA monoclonal antibody produced by ATCC Accession No. PTA 2439 hybridoma [Variant 3E10] | – | – | – | – | – | Nuclear localizing? [1]: Yes |
| CC(Nc1nc(N2CCCC2)nc2ccccc12)c1ccccc1 (stereo not drawn) [importazole] | reduction | reduction | inhibit nuclear uptake of ANAs in SLE-19 in a dose-dependent manner | – | – | nuclear uptake of rhodamine-labeled variant 13 [4]: inhibited |
| CC#C[C@]1(O)CC[C@H]2[C@@H]3CCC4=CC(=O)CCC4=C3[C@@H](c3ccc(N(C)C)cc3)C[C@@]21C [mifepristone] | reduction | reduction | inhibit nuclear uptake of ANAs in SLE-19 in a dose-dependent manner | – | – | – |
| ivermectin | dose-dependent reduction | dose-dependent reduction | – | – | – | cellular/nuclear uptake of rhodamine-labeled variant 13 [6]: inhibited; nuclear uptake of SSC [7]: inhibited; nuclear staining / nuclear uptake of ANAs in SLE-4, 8, 9, and 19 ([5]; serum diluted 1:50): reduced the nuclear staining; also recorded: blocked |
| variant 10: humanized 3E10 variant, SEQ ID NOS: 14, 22, and 32 (protein) chain 1: EVQLVESGGGLVQPGGSLRLSCAASGFTFSNYGMHWVRQAPGKGLEWVSYISSSSSTIYYADSVKGRFTISRDNAKNSLYLQMNSLRAEDTAVYYCARRGLLLDYWGQGTTVTVSS chain 2: DIQMTQSPSSLSASVGDRVTITCRASKSVSTSSYSYMHWYQQKPGKAPKLLIKYASYLESGVPSRFSGSGSGTDFTLTISSLQPEDFATYYCQHSREFPWTFGQGTKVEIK chain 3: DIQMTQSPSSLSASVGDRVTITCRASKSVSTSSYSYMHWYQQKPGKAPKLLIKYASYLESGVPSRFSGSGSGTDFTLTISSLQPEDFATYYCQHSREFPWTFGQGTKVEIKRADAAPGGGGSGGGGSGGGGSEVQLVESGGGLVQPGGSLRLSCAASGFTFSNYGMHWVRQAPGKGLEWVSYISSSSSTIYYADSVKGRFTISRDNAKNSLYLQMNSLRAEDTAVYYCARRGLLLDYWGQGTTVTVSSASTKGPSVFPLAPLESSGSDIQMTQSPSSLSASVGDRVTITCRASKSVSTSSYSYMHWYQQKPGKAPKLLIKYASYLESGVPSRFSGSGSGTDFTLTISSLQPEDFATYYCQHSREFPWTFGQGTKVEIKRADAAPGGGGSGGGGSGGGGSEVQLVESGGGLVQPGGSLRLSCAASGFTFSNYGMHWVRQAPGKGLEWVSYISSSSSTIYYADSVKGRFTISRDNAKNSLYLQMNSLRAEDTAVYYCARRGLLLDYWGQGTTVTVSS | – | – | – | penetrated nuclei very well | Yes | – |
| variant 13: humanized 3E10 variant, SEQ ID NOS: 17, 23, and 35, expressed in CHO cells (protein) chain 1: EVQLVESGGGLVQPGGSLRLSCAASGFTFSNYGMHWVRQAPGKGLEWVSYISSGSSTIYYADSVKGRFTISRDNAKNSLYLQMNSLRAEDTAVYYCARRGLLLDYWGQGTTVTVSS chain 2: DIQMTQSPSSLSASLGDRATITCRASKTVSTSSYSYMHWYQQKPGQPPKLLIKYASYLESGVPSRFSGSGSGTDFTLTISSLQPEDAATYYCQHSREFPWTFGGGTKVEIK chain 3: DIQMTQSPSSLSASLGDRATITCRASKTVSTSSYSYMHWYQQKPGQPPKLLIKYASYLESGVPSRFSGSGSGTDFTLTISSLQPEDAATYYCQHSREFPWTFGGGTKVEIKRADAAPGGGGSGGGGSGGGGSEVQLVESGGGLVQPGGSLRLSCAASGFTFSNYGMHWVRQAPGKGLEWVSYISSGSSTIYYADSVKGRFTISRDNAKNSLYLQMNSLRAEDTAVYYCARRGLLLDYWGQGTTVTVSSASTKGPSVFPLAPLESSGSDIQMTQSPSSLSASLGDRATITCRASKTVSTSSYSYMHWYQQKPGQPPKLLIKYASYLESGVPSRFSGSGSGTDFTLTISSLQPEDAATYYCQHSREFPWTFGGGTKVEIKRADAAPGGGGSGGGGSGGGGSEVQLVESGGGLVQPGGSLRLSCAASGFTFSNYGMHWVRQAPGKGLEWVSYISSGSSTIYYADSVKGRFTISRDNAKNSLYLQMNSLRAEDTAVYYCARRGLLLDYWGQGTTVTVSS | – | – | – | penetrated nuclei very well | Yes | variant 13 nuclear signal in importin β1 knockdown cells compared to cells with intact importin β1 [9]: significant reduction |
